pEC50: −log10 of the molar value.

The subject of one assay is WNT signaling (TopGFP reporter in Human Colonic Epithelial Cells (HCEC)). The assay can be described thus: WNT Reporter Assay (TopGFP reporter). In kind it is cell-based. As to conditions: Homo sapiens, stimulated with 10 μM CHIR99021, 24 hours, TopGFP/mCherry.
Experimental: WNT Reporter Assay: Human Colonic Epithelial Cells (HCEC) were cultured using 1×DMEM supplemented with 1% penicillin/streptomycin, 1% Glutamax, and 10% fetal bovine serum in 5% CO2 at 37° C. These cells were previously engineered to express the TopGFP reporter (Addgene #24304) using second generation lentiviral techniques. For the Wnt reporter assay, cells were seeded at 2000 cells per well in a 384-well black screenstar imaging microplates (Greiner #781866) and allowed to adhere overnight. The following day cells were stimulated to induce the Wnt pathway using 10 μM CHIR99021 (Selleck #S1263). […] Cells were incubated for 24 hours before fixing for 30 minutes with 4% paraformaldehyde/sucrose solution. Cells were permeabilized with 0.1% triton-x in PBS for 10 minutes and stained for DAPI for 30 minutes. Plates were imaged on a Nikon Ti2 Eclipse fluorescent microscope for DAPI, GFP, and mCherry. Using Nikon Elements software for analysis, nuclei were segmented based on DAPI and mean object intensity per cell for both TopGFP and the internal control (mCherry) was measured. To calculate the amount of Wnt activity, we took the mean intensity of TopGFP and divided it by the mean intensity of mCherry per cell to normalize individual cells. Curves and EC50s were plotted and calculated using Graphpad Prism software.
`CC(=O)N1CCN(c2ncnc3ccc(-c4ccnc(N)c4)cc23)CC1` [Compound 1, 1-(4-(6-(2-aminopyridin-4-yl)quinazolin-4-yl)piperazin-1-yl)ethan-1-one]: the pEC50 was 6.00 to 7.00.

As to `Nc1cc(-c2ccc3ncnc(N4CCN(c5ccccc5)CC4)c3c2)ccn1` [Compound 2, 4-(4-(4-phenylpiperazin-1-yl)quinazolin-6-yl)pyridin-2-amine], the pEC50 was over 7.00.

`Nc1cc(-c2ccc3ncnc(N4CCN(c5ccccn5)CC4)c3c2)ccn1` [Compound 3, 4-(4-(4-(pyridin-2-yl)piperazin-1-yl)quinazolin-6-yl)pyridin-2-amine]: the pEC50 is over 7.00.

Take `Nc1cc(-c2ccc3ncnc(N4CCN(c5ccccc5)CC4)c3n2)ccn1` [Compound 4, 4-(4-(4-phenylpiperazin-1-yl)pyrido[3,2-d]pyrimidin-6-yl)pyridin-2-amine]: the pEC50 is over 7.00.

For the compound `Nc1cc(-c2ccc3ncnc(N4CCN(c5ccccn5)CC4)c3n2)ccn1` [Compound 5, 4-(4-(4-(pyridin-2-yl)piperazin-1-yl)pyrido[3,2-d]pyrimidin-6-yl)pyridin-2-amine], the pEC50 is over 7.00.

The compound `Nc1cc(-c2ccc3ncnc(N4CCN(c5ccncc5)CC4)c3c2)ccn1` [Compound 6, 4-(4-(4-(pyridin-4-yl)piperazin-1-yl)quinazolin-6-yl)pyridin-2-amine] gave a pEC50 of 6.00 to 7.00.

For `Cn1cc(-c2ccc3ncnc(N4CCN(c5ccccn5)CC4)c3c2)cn1` [Compound 7, 6-(1-methyl-1H-pyrazol-4-yl)-4-(4-(pyridin-2-yl)piperazin-1-yl)quinazoline], the pEC50 was 6.00 to 7.00.

With `FC(F)c1cc(-c2ccc3ncnc(N4CCN(c5ccccn5)CC4)c3c2)ccn1` [Compound 8, 6-(2-(difluoromethyl)pyridin-4-yl)-4-(4-(pyridin-2-yl)piperazin-1-yl)quinazoline], the pEC50 was 6.00 to 7.00.

For `Nc1cc(-c2ccc3ncnc(N4CCN(c5ccncn5)CC4)c3c2)ccn1` [Compound 9, 4-(4-(4-(pyrimidin-4-yl)piperazin-1-yl)quinazolin-6-yl)pyridin-2-amine], the pEC50 was 6.00 to 7.00.

The compound `Nc1cc(-c2ccc3ncnc(N4CCN(c5ncccn5)CC4)c3c2)ccn1` [Compound 10, 4-(4-(4-(pyrimidin-2-yl)piperazin-1-yl)quinazolin-6-yl)pyridin-2-amine] showed a pEC50 of 6.00 to 7.00.

The compound `Nc1cc(-c2ccc3ncnc(N4CCN(C5COC5)CC4)c3c2)ccn1` [Compound 11, 4-(4-(4-(oxetan-3-yl)piperazin-1-yl)quinazolin-6-yl)pyridin-2-amine] showed a pEC50 of under 6.00.

Compound `Cc1cc(-c2ccc3ncnc(N4CCN(c5ccccn5)CC4)c3c2)ccn1` [Compound 12, 6-(2-methylpyridin-4-yl)-4-(4-(pyridin-2-yl)piperazin-1-yl)quinazoline] had a pEC50 of under 6.00.

On to `Fc1cc(-c2ccc3ncnc(N4CCN(c5ccccn5)CC4)c3c2)ccn1` [Compound 13, 6-(2-fluoropyridin-4-yl)-4-(4-(pyridin-2-yl)piperazin-1-yl)quinazoline], for which the negative logarithm of the EC50 (pEC50) is under 6.00.

On to `c1ccc(N2CCN(c3ncnc4ccc(-c5cn[nH]c5)cc34)CC2)nc1` [Compound 14, 6-(1H-pyrazol-4-yl)-4-(4-(pyridin-2-yl)piperazin-1-yl)quinazoline], for which the negative logarithm of the EC50 (pEC50) is over 7.00.

In the case of `Nc1cc(-c2ccc3ncnc(N4CCN(c5ccccc5F)CC4)c3c2)ccn1` [Compound 15, 4-(4-(4-(2-fluorophenyl)piperazin-1-yl)quinazolin-6-yl)pyridin-2-amine], the pEC50 was 6.00 to 7.00.

In the case of `Nc1cc(-c2ccc3ncnc(N4CCN(c5ccc(C(F)(F)F)cn5)CC4)c3n2)ccn1` [Compound 16, 4-(4-(4-(5-(trifluoromethyl)pyridin-2-yl)piperazin-1-yl)pyrido[3,2-d]pyrimidin-6-yl)pyridin-2-amine], the pEC50 was over 7.00.

`c1ccc(N2CCN(c3ncnc4ccc(-c5c[nH]c6ncccc56)cc34)CC2)nc1` [Compound 17, 4-(4-(pyridin-2-yl)piperazin-1-yl)-6-(1H-pyrrolo[2,3-b]pyridin-3-yl)quinazoline] gave a pEC50 of over 7.00.

With `Nc1cc(-c2ccc3ncnc(N4CCN(c5ccccc5F)CC4)c3n2)ccn1` [Compound 19, 4-(4-(4-(2-fluorophenyl)piperazin-1-yl)pyrido[3,2-d]pyrimidin-6-yl)pyridin-2-amine], the pEC50 was over 7.00.

In turn, `Nc1cc(-c2ccc3ncnc(N4CCN(c5ccc(F)cc5)CC4)c3n2)ccn1` [Compound 24, 4-(4-(4-(4-fluorophenyl)piperazin-1-yl)pyrido[3,2-d]pyrimidin-6-yl)pyridin-2-amine] showed a pEC50 of over 7.00.

For the compound `Nc1cc(-c2ccc3nccc(N4CCN(c5ccccc5)CC4)c3c2)ccn1` [Compound 25, 4-(4-(4-phenylpiperazin-1-yl)quinolin-6-yl)pyridin-2-amine], the pEC50 is over 7.00.

For the compound `c1ccc(N2CCN(c3ccnc4ccc(-c5cn[nH]c5)cc34)CC2)cc1` [Compound 26, 4-(4-phenylpiperazin-1-yl)-6-(1H-pyrazol-4-yl)quinoline], the pEC50 is over 7.00.

For the compound `Nc1cc(-c2ccc3ncnc(N4CCN(c5ccc(O)cc5)CC4)c3c2)ccn1` [Compound 27, 4-(4-(6-(2-aminopyridin-4-yl)quinazolin-4-yl)piperazin-1-yl)phenol], the pEC50 is 6.00 to 7.00.

`Nc1cc(-c2ccc3ncnc(N4CCN(c5ccc(O)cc5)CC4)c3n2)ccn1` [Compound 28, 4-(4-(6-(2-aminopyridin-4-yl)pyrido[3,2-d]pyrimidin-4-yl)piperazin-1-yl)phenol] had a pEC50 of over 7.00.

On to `Nc1cc(-c2ccc3nccc(N4CCN(c5ccccn5)CC4)c3c2)ccn1` [Compound 29], for which the pEC50 is over 7.00.

Turning to `Nc1cc(-c2ccc3nccc(N4CCN(c5ccc(F)cc5)CC4)c3c2)ccn1` [Compound 30, 4-(4-(4-(4-fluorophenyl)piperazin-1-yl)quinolin-6-yl)pyridin-2-amine], the pEC50 was over 7.00.

The compound `Nc1cc(-c2ccc3ncnc(N4CCN(c5ccc(F)cc5)CC4)c3c2)ccn1` [Compound 31, 4-(4-(4-(4-fluorophenyl)piperazin-1-yl)quinazolin-6-yl)pyridin-2-amine] had a negative-log EC50 (pEC50) of 6.00 to 7.00.

`O=C1CN(c2ncnc3ccc(-c4cn[nH]c4)cc23)CCN1c1ccccc1` [Compound 32, 4-(6-(1H-pyrazol-4-yl)quinazolin-4-yl)-1-phenylpiperazin-2-one] gave a pEC50 of over 7.00.

For the compound `Nc1cc(-c2ccc3nccc(N4CCN(c5ccccc5F)CC4)c3c2)ccn1` [Compound 33, 4-(4-(4-(2-fluorophenyl)piperazin-1-yl)quinolin-6-yl)pyridin-2-amine], the pEC50 is 6.00 to 7.00.

`Cc1ccc(N2CCN(c3ccnc4ccc(-c5ccnc(N)c5)cc34)CC2)c(C)c1` [Compound 34, 4-(4-(4-(2,4-dimethylphenyl)piperazin-1-yl)quinolin-6-yl)pyridin-2-amine] showed a negative-log EC50 (pEC50) of 6.00 to 7.00.

Regarding `COc1cc2c(cc1OC)CN(c1ncnc3ccc(-c4ccnc(N)c4)cc13)CC2` [Compound 35, 4-(4-(6,7-dimethoxy-3,4-dihydroisoquinolin-2(1H)-yl)quinazolin-6-yl)pyridin-2-amine], the pEC50 was 6.00 to 7.00.

Compound `Fc1ccc(CN2CCCN(c3ncnc4ccc(-c5cn[nH]c5)cc34)CC2)cc1` [Compound 36, 4-(4-(4-fluorobenzyl)-1,4-diazepan-1-yl)-6-(1H-pyrazol-4-yl)quinazoline] had a negative-log EC50 (pEC50) of over 7.00.

In turn, `Nc1cc(-c2ccc3ncnc(N4CCN(c5cccnc5)CC4)c3c2)ccn1` [Compound 37, 4-(4-(4-(pyridin-3-yl)piperazin-1-yl)quinazolin-6-yl)pyridin-2-amine] had a pEC50 of over 7.00.

`Nc1cc(-c2ccc3ncnc(N4CCN(c5ccccc5)C(=O)C4)c3c2)ccn1` [Compound 38, 4-(6-(2-aminopyridin-4-yl)quinazolin-4-yl)-1-phenylpiperazin-2-one] gave a pEC50 of 6.00 to 7.00.

`Nc1cc(-c2ccc3ncnc(N4CCN(c5ccc(F)cc5F)CC4)c3c2)ccn1` [Compound 39, 4-(4-(4-(2,4-difluorophenyl)piperazin-1-yl)quinazolin-6-yl)pyridin-2-amine]: the pEC50 was 6.00 to 7.00.

`Fc1ccccc1N1CCN(c2ncnc3ccc(-c4cnoc4)nc23)CC1` [Compound 40, 4-(4-(4-(2-fluorophenyl)piperazin-1-yl)pyrido[3,2-d]pyrimidin-6-yl)isoxazole] showed a pEC50 of 6.00 to 7.00.

Turning to `Nc1cc(-c2ccc3ncnc(N4CCCN(Cc5ccc(F)cc5)CC4)c3c2)ccn1` [Compound 41, 4-(4-(4-(4-fluorobenzyl)-1,4-diazepan-1-yl)quinazolin-6-yl)pyridin-2-amine], the pEC50 was 6.00 to 7.00.

Compound `Cn1cc(-c2ccc3ncnc(N4CCN(Cc5ccc(F)cc5)CC4)c3c2)cn1` [Compound 42, 4-(4-(4-fluorobenzyl)piperazin-1-yl)-6-(1-methyl-1H-pyrazol-4-yl)quinazoline] showed a negative-log EC50 (pEC50) of under 6.00.

Compound `Nc1cc(-c2ccc3ncnc(N4CCN(Cc5ccc(F)cc5)CC4)c3c2)ccn1` [Compound 43, 4-(4-(4-(4-fluorobenzyl)piperazin-1-yl)quinazolin-6-yl)pyridin-2-amine] showed a pEC50 of 6.00 to 7.00.

Staying with this assay, now noted: stimulated with 10 μM CHIR99021, 24 hours, TopGFP/mCherry.
Take “4-(4-(2-fluorophenyl)piperazin-1-yl)-6-(1-methyl-1H-pyrazol-3-yl)pyrido[3,2-d]pyrimidine [Compound 20]”: the negative-log EC50 (pEC50) was under 6.00.

As for “4-(4-(2-fluorophenyl)piperazin-1-yl)-6-(1H-pyrazol-3-yl)pyrido[3,2-d]pyrimidine [Compound 23]”, the pEC50 is over 7.00.

As for “6-(1-methyl-1H-pyrazol-3-yl)-4-(4-(5-(trifluoromethyl)pyridin-2-yl)piperazin-1-yl)pyrido[3,2-d]pyrimidine [Compound 21]”, the pEC50 was under 6.00.

“6-(1H-pyrazol-3-yl)-4-(4-(5-(trifluoromethyl)pyridin-2-yl)piperazin-1-yl)pyrido[3,2-d]pyrimidine [Compound 22]”: the pEC50 is over 7.00.

As to “6-(1H-pyrazol-3-yl)-4-(4-(pyridin-2-yl)piperazin-1-yl)pyrido[3,2-d]pyrimidine [Compound 18]”, the pEC50 was over 7.00.

The values above are taken from US20250382301A1 (Arizona Board of Regents on Behalf of the University of …, priority 2022, published 2025).
